Test results taken from patent publication US20120202257A1, “LIGE-TYPE ENZYMES FOR BIOCONVERSION OF LIGNIN-DERIVED COMPOUNDS” (priority 2010, published 2012).

B1: ligE1: N. aromaticivorans putative beta-etherase polypeptide, glutathione S-transferase-like protein, expressed in E. coli (protein)
chain: MAANNTITFYDLALSTGATISPFVWATKYALKHKGFDLDVVPGGFTGILERTGGKTERLPAIVDDGEFVLDSWGIVEYLDAKYPDRPVLIPHESVAATLKALDNWFWNAAVGPWMFCFCQDYRDLSLPQDHEYVTHSREKMLGRKLEEVQAGREERLPKISAALEPLRAALAQHQWLGGSSPNYADYRIMGGILFTASVCKTPVLANDDPLRDWIERCLDLYGGLGRHPGLFPLFGLEQREGDPDLFNRAAGQGGIYKRNTGPESTRAETQRITEGMKK
B2: ligE: S. paucimobilis beta-etherase, positive control polypeptide (protein)
chain: MARNNTITLYDLQLESGCTISPYVWRTKYALKHKGFDIDIVPGGFTGILERTGGRSERVPVIVDDGEWVLDSWVIAEYLDEKYPDRPMLFEGPTQKNLMKFLDNWLWSTAVGPWFRCYILDYHDLSLPQDRDYVRWSREQWFLGGQRLEDVQAGREDRLPLVPPTLEPFRRILAETKWLGGDQPNFADYSALAVFLWTASVARTPPLTEDDPLRDWLDRGFDLFDGLGRHPGMNPLFGLKLREGDPEPFVRQTGPAGAGGQALNKGPQTTKMPPRVAEKAD
B3: LigF2: N. aromaticivorans putative beta-etherase polypeptide, glutathione S-transferase-like protein (protein)
chain: MALKYYHAEPLANSLKSMVPLKEKGLAYESIYVDLHKFEQHQPWFTAINPEGQVPVLDHDGTIITHTTVINEYLEDAFPDAQPADAPLRPRDPVGAARMRYWNKFIDEHVMNYVSMHGWHRMVGVIARNIASGDFEKLLESIPLPDQRKKWATARSGFSEADLANATAKIEYALDKVEKQLGETKWLAGDTYTLADINFYSHCGAMVERMFPEMEVARRAPRLCEWRDRVAARPAVAEALKSEDRTAPGLRVWSGEVR
B4: ABD26530.1: N. aromaticivorans putative beta-etherase polypeptide (protein)
chain: MVIPLGEDNTIMLKLYSFGPAANSMKPLLTVFEKGLDVEKHRLDPAKFEHHTDWFKAINPRGQVPALVDGDKVVTESTVICEYLEDEYPTEVALRPADSFGKAQMRIWTKWVDEYFCWCVSTIGWHRYVGNMVKSLSDAEFEEKVKAIPVIEQQVKWRRAREGFPQDMLDEEMRKIAYSVRKLDDHLADHEWLVPGQYTLADICNFAIANGMQFGFAELVNKQDTPHLVRWIEQINERPAVKQMFAQVELEKLGPRE
B5: ABD27309.1: N. aromaticivorans putative beta-etherase polypeptide (protein)
chain: MDEVSLYHWEPNANSGKPMLALMEKGVPFSSHYIDMLQFDQHKPEYLAINPQGTIPAMTHNGQVLTESTAIMEYVNDRFDGPDLMPADAQDRWRVRWWMKFMDQWLGPSFSMIGWSVFVGPMVRQRDPAELAAAIDRIPLPERRTAWRKAINGDFSESEMAESRRRVGLGIAKLEEELGKRPYVGSNQYSLADINIFNSTYSLPISQPDLAGKDRTPNIMRWLKRVYTREAVKKTWAMGKTDLAHRYGLIMAEIEG
B6: LigF: S. paucimobilis beta-etherase, positive control polypeptide (protein)
chain: MTLKLYSFGPGANSLKPLATLYEKGLEFEQVFVDPSKFEQHSDWFKKINPRGQVPALWHDGKVVTESTVICEYLEDVFPESGNSLRPADPFKRAEMRVWTKWVDEYFCWCVSTIGWAFGIKAIAQKMSDEEFEEHINKNVPIPEQQLKWRRARNGFPQEMLDEEFRKVGVSVARLEETLSKQDYLVDTGYSLADICNFAIANGLQRPGGFFGDYVNQEKTPGLCAWLDRINARPAIKEMFEKSKREDLLKRQNEKVA

System: Saccharomyces cerevisiae
Test: not given
Settings: cited from earlier work

**Q.** Which “antifungal activities against the yeast Saccharomyces cerevisiae” value (“antifungal activities” below) does the source give for `COc1ccc(C=O)cc1OC` [Veratraldehyde] here?
**A.** Its value is “significant antifungal activities”.

**Q.** With `O=C(O)C=Cc1ccccc1` [cinnamic acid] as the molecule, how does the “antifungal activities” value read?
**A.** The value was “significant antifungal activities”.

**Q.** For `O=C(O)/C=C/c1cccc(O)c1` [m-coumaric acid], which “antifungal activities” value is on record?
**A.** Its value is “significant antifungal activities”.

**Q.** With `O=C(O)/C=C/c1ccccc1O` [o-coumaric acid] as the molecule, how does the “antifungal activities” value read?
**A.** Its value is “significant antifungal activities”.

**Q.** With `O=C(O)/C=C/c1ccc(O)cc1` [p-coumaric acid] as the molecule, how does the “antifungal activities” value read?
**A.** Its value is “significant antifungal activities”.

**Q.** With `COc1cc(C(=O)O)ccc1O` [vanillic acid] as the molecule, how does the “antifungal activities” value read?
**A.** The value was “significant antifungal activities”.

**Q.** Which “antifungal activities” value does the source give for `COc1cc(CCC(C)=O)ccc1O` [vanillylacetone] here?
**A.** Its value is “significant antifungal activities”.

System: Escherichia coli
Test: not given
Settings: benzaldehyde derivatives, each demonstrated; cited from earlier work

**Q.** Which “antibacterial activity against Escherichia coli” value does the source give for `O=Cc1ccc(O)c(O)c1O` [2,3,4-trihydroxybenzaldehyde] here?
**A.** The value was “antibacterial activity”.

**Q.** With `O=Cc1cccc(O)c1O` [2,3-dihydroxybenzaldehyde] as the molecule, how does the “antibacterial activity against Escherichia coli” value read?
**A.** Its value is “antibacterial activity”.

**Q.** For `O=Cc1c(O)cc(O)cc1O` [2,4,6-trihydroxybenzaldehyde], which “antibacterial activity against Escherichia coli” value is on record?
**A.** Its value is “antibacterial activity”.

**Q.** Which “antibacterial activity against Escherichia coli” value does the source give for `O=Cc1ccc(O)cc1O` [2,4-dihydroxybenzaldehyde] here?
**A.** The value was “antibacterial activity”.

**Q.** Which “antibacterial activity against Escherichia coli” value does the source give for `O=Cc1cc(O)ccc1O` [2,5-dihydroxybenzaldehyde] here?
**A.** The value was “antibacterial activity”.

**Q.** Which “antibacterial activity against Escherichia coli” value does the source give for `COc1cccc(C=O)c1O` [2-hydroxy-3-methoxybenzaldehyde] here?
**A.** The value was “antibacterial activity”.

**Q.** With `COc1ccc(O)c(C=O)c1` [2-hydroxy-5-methoxybenzaldehyde] as the molecule, how does the “antibacterial activity against Escherichia coli” value read?
**A.** The value was “antibacterial activity”.

**Q.** For `O=Cc1ccccc1O` [2-hydroxybenzaldehyde], which “antibacterial activity against Escherichia coli” value is on record?
**A.** Its value is “antibacterial activity”.

**Q.** For `COc1cc(O)cc(OC)c1C=O` [4-hydroxy-2,6-dimethoxybenzaldehyde], which “antibacterial activity against Escherichia coli” value is on record?
**A.** The value was “antibacterial activity”.

Same assay, conditions: each known; cited from earlier work

**Q.** For `O=Cc1ccc(O)cc1` [4-hydroxybenzaldehyde], which “antimicrobial activity against Escherichia coli” value is on record?
**A.** The value was “antimicrobial activity”.

**Q.** For `O=Cc1ccc(CO)o1` [5-hydroxymethylfurfural], which “antimicrobial activity against Escherichia coli” value is on record?
**A.** Its value is “antimicrobial activity”.

**Q.** With `O=Cc1ccco1` [furfural] as the molecule, how does the “antimicrobial activity against Escherichia coli” value read?
**A.** Its value is “antimicrobial activity”.

**Q.** For `COc1cc(C=O)cc(OC)c1O` [syringaldehyde], which “antimicrobial activity against Escherichia coli” value is on record?
**A.** The value was “antimicrobial activity”.

**Q.** For `COc1cc(C=O)ccc1O` [vanillin], which “antimicrobial activity against Escherichia coli” value is on record?
**A.** Its value is “antimicrobial activity”.

System: not listed separately
Test: in vitro biochemical assay for beta-etherase activity on fluorescent substrate MUAV (formation of 4MU), clarified E. coli cell extracts
Settings: E. coli cell extracts expressing the protein; reactions containing 0.1 mM MUAV substrate
Experimental: This. example describes a method for gene expression in E. coli, as well as beta-etherase biochemical assays. Expression of known and putative beta-etherase genes was performed using 5 ml cultures of the recombinant E. coli strains described herein in Luria Broth medium by induction of gene expression using isopropylthiogalactoside (IPTG) to a final concentration of 0.1 mM. Following induction, and cell harvest, the cells were disrupted using either sonication or the BPER (Invitrogen) cell lysis system.
In vitro reactions were performed in a total volume of 200 ul and contained: 25 mM TrisHCl pH 7.5; 0.5 mM dithiothreitol; 1 mM glutathione; 0.05 mM or 0.1 mM MUAV; 10 ul of clarified cell extract used to initiate the reactions. Following incubation for 2.5 hours at room temperature, a 50 ul sample of the reactions was terminated using 150 uL of 300 mM glycine/NaOH buffer pH 9. The formation of 4 methylumbelliferone (4MU) upon hydrolysis of the aryl ether bond was monitored by the increase in fluorescence at λex=360 nm and λem=450 nm using a Spectramax UV/visible/fluorescent spectrophotometer.
The total protein concentrations of the cell lysates were determined using the BCA reagent system for protein quantification (Pierce). […]

**Q.** With B1 as the molecule, how does the “total activity (beta-etherase)” value read?
**A.** Its value is 529 rfu/ug.

**Q.** With B2 as the molecule, how does the “total activity (beta-etherase)” value read?
**A.** The value was 7 rfu/ug.

Same assay, conditions: MUAV substrate

**Q.** With B1 as the molecule, how does the “beta-etherase activity (in words)” value read?
**A.** Its value is “much elevated beta-etherase activity”.

**Q.** With B3 as the molecule, how does the “beta-etherase activity (in words)” value read?
**A.** Its value is “beta-etherase activity”.

**Q.** With B4 as the molecule, how does the “beta-etherase activity (in words)” value read?
**A.** Its value is “beta-etherase activity”.

**Q.** Which “beta-etherase activity (in words)” value does the source give for B5 here?
**A.** Its value is “beta-etherase activity”.

Same assay, conditions: MUAV substrate; LigF-type proteins

**Q.** Which “total activity (beta-etherase)” value does the source give for B3 here?
**A.** The value was 1206 rfu/ug.

**Q.** For B6, which “total activity (beta-etherase)” value is on record?
**A.** The value was 558 rfu/ug.

Same assay, conditions: MUAV substrate; listed as ABD26841.1

**Q.** With B1 as the molecule, how does the “beta-etherase activity (in words)” value read?
**A.** The value was “beta-etherase activity”.
